Experimental data: patent US20190209650A1, “METHOD TO IMPROVE THE EFFECTIVENESS OF ANTI-CANCER THERAPIES BY EXPOSING CANCER CELLS TO AN INFLAMMATORY STIMULUS PRIOR TO TREATMENT” (priority 2016, published 2019)

System: SW620 colorectal cancer cell line
Assay: Flow cytometry of EpCAM positive cells and cancer stem cell (CD44+CD133-) subpopulation after incubation with cytokines
Format: cell-based, human
Details: for % Gated, R4 (CD44FITC, CD133 PE) / % Total, R4 (CD44FITC, CD133 PE): population R4 & R14 & R2 & R1; for % Gated, R5 (CD44FITC, CD133 PE) / % Total, R5 (CD44FITC, CD133 PE): population R5 & R14 & R2 & R1; for % Gated, R6 (CD44FITC, CD133 PE) / % Total, R6 (CD44FITC, CD133 PE): population R6 & R14 & R2 & R1; for % Gated, R7 Cancer Stem Cell (CSC) (CD44+CD133-) / % Total, R7 Cancer Stem Cell (CSC) (CD44+CD133-): population R7 & R14 & R2 & R1; for % Gated, R8 (CD44FITC, EpCAMefluor710) / % Total, R8 (CD44FITC, EpCAMefluor710): population R8 & R14 & R2 & R1; for % Gated, R9 EpCAM positive Cells (CD44FITC, EpCAMefluor710) / % Total, R9 EpCAM positive Cells (CD44FITC, EpCAMefluor710): population R9 & R14 & R2 & R1; for % Gated, R10 EpCAM positive Cells (CD44FITC, EpCAMefluor710) / % Total, R10 EpCAM positive Cells (CD44FITC, EpCAMefluor710): population R10 & R14 & R2 & R1; for % Gated, R11 (CD44FITC, EpCAMefluor710) / % Total, R11 (CD44FITC, EpCAMefluor710): population R11 & R14 & R2 & R1
Method: This number returned to near baseline 21% at 48 hours. […] This change was transient, occurring within 24 hours and rapidly returning to baseline.
The data from the scatter plots of FIGS. 1A-1H, 2A-2H, and 3A-3H are reproduced below in Tables 1-3.
Based on the above data of potentiating the effectiveness of chemotherapy by exposing cancer cells to specific cytokines such as HGF and or Il-6 within a time limited fashion, the mechanism behind this ability to sensitize cancer cells may not simply be triggering cellular proliferation. Specific cytokine exposures can transiently cause a cancer cell population to differentiate away from a more stem cell enriched, mesenchymal phenotype towards a more differentiated, epithelial cell population more sensitive to the effects of anti-cancer therapies (see Tables 1-3).
In particular, exposure to a control population of SW620 colorectal cancer cell line to HGF at a concentration of 10 ng per ml for 24 hours caused the control putative stem cell population (CD44+/CD133−) to drop from 33% at baseline (see Table 1, R7 region, CD 44 positive/CD133 negative) to 1% (see Table 2, R7, region CD 44 positive/CD133 negative). This drop was transient, as exposure to the same cell line for 48 hours of HGF at 10 ng per ml transitioned the phenotypic distribution back towards a stem cell enriched phenotype with 23% putative stem cells (see Table 3, R7 region, CD 44 positive/CD133 negative).

## IL6: Interleukin 6, cytokine
0 hour incubation
  % Gated, R4 (CD44FITC, CD133 PE): 48.6%
  % Total, R4 (CD44FITC, CD133 PE): 45.1%
  % Gated, R5 (CD44FITC, CD133 PE): 3.48%
  % Total, R5 (CD44FITC, CD133 PE): 3.23%
  % Gated, R6 (CD44FITC, CD133 PE): 13.9%
  % Total, R6 (CD44FITC, CD133 PE): 12.9%
  % Gated, R7 Cancer Stem Cell (CSC) (CD44+CD133-): 34.2%
  % Total, R7 Cancer Stem Cell (CSC) (CD44+CD133-): 31.7%
  % Gated, R8 (CD44FITC, EpCAMefluor710): 5.15%
  % Total, R8 (CD44FITC, EpCAMefluor710): 4.78%
  % Gated, R9 EpCAM positive Cells (CD44FITC, EpCAMefluor710): 53%
  % Total, R9 EpCAM positive Cells (CD44FITC, EpCAMefluor710): 49.2%
  % Gated, R10 EpCAM positive Cells (CD44FITC, EpCAMefluor710): 39%
  % Total, R10 EpCAM positive Cells (CD44FITC, EpCAMefluor710): 36.1%
  % Gated, R11 (CD44FITC, EpCAMefluor710): 2.42%
  % Total, R11 (CD44FITC, EpCAMefluor710): 2.24%
24 h incubation
  % Gated, R4 (CD44FITC, CD133 PE): 41.1%
  % Total, R4 (CD44FITC, CD133 PE): 33.4%
  % Gated, R5 (CD44FITC, CD133 PE): 7.69%
  % Total, R5 (CD44FITC, CD133 PE): 6.27%
  % Gated, R6 (CD44FITC, CD133 PE): 28.8%
  % Total, R6 (CD44FITC, CD133 PE): 23.4%
  % Gated, R7 Cancer Stem Cell (CSC) (CD44+CD133-): 22.3%
  % Total, R7 Cancer Stem Cell (CSC) (CD44+CD133-): 18.1%
  % Gated, R8 (CD44FITC, EpCAMefluor710): 5.35%
  % Total, R8 (CD44FITC, EpCAMefluor710): 4.36%
  % Gated, R9 EpCAM positive Cells (CD44FITC, EpCAMefluor710): 48.4%
  % Total, R9 EpCAM positive Cells (CD44FITC, EpCAMefluor710): 39.4%
  % Gated, R10 EpCAM positive Cells (CD44FITC, EpCAMefluor710): 45.2%
  % Total, R10 EpCAM positive Cells (CD44FITC, EpCAMefluor710): 36.8%
  % Gated, R11 (CD44FITC, EpCAMefluor710): 1.94%
  % Total, R11 (CD44FITC, EpCAMefluor710): 1.58%
48 h incubation
  % Gated, R4 (CD44FITC, CD133 PE): 37.5%
  % Total, R4 (CD44FITC, CD133 PE): 33.7%
  % Gated, R5 (CD44FITC, CD133 PE): 7.38%
  % Total, R5 (CD44FITC, CD133 PE): 6.64%
  % Gated, R6 (CD44FITC, CD133 PE): 30.7%
  % Total, R6 (CD44FITC, CD133 PE): 27.6%
  % Gated, R7 Cancer Stem Cell (CSC) (CD44+CD133-): 25.1%
  % Total, R7 Cancer Stem Cell (CSC) (CD44+CD133-): 22.6%
  % Gated, R8 (CD44FITC, EpCAMefluor710): 26%
  % Total, R8 (CD44FITC, EpCAMefluor710): 23.4%
  % Gated, R9 EpCAM positive Cells (CD44FITC, EpCAMefluor710): 27.6%
  % Total, R9 EpCAM positive Cells (CD44FITC, EpCAMefluor710): 24.8%
  % Gated, R10 EpCAM positive Cells (CD44FITC, EpCAMefluor710): 26%
  % Total, R10 EpCAM positive Cells (CD44FITC, EpCAMefluor710): 23.3%
  % Gated, R11 (CD44FITC, EpCAMefluor710): 21.4%
  % Total, R11 (CD44FITC, EpCAMefluor710): 19.3%

## PDGF Beta: Platelet derived growth factor BB
0 hour incubation
  % Gated, R4 (CD44FITC, CD133 PE): 49.7%
  % Total, R4 (CD44FITC, CD133 PE): 46.5%
  % Gated, R5 (CD44FITC, CD133 PE): 2.45%
  % Total, R5 (CD44FITC, CD133 PE): 2.29%
  % Gated, R6 (CD44FITC, CD133 PE): 10.7%
  % Total, R6 (CD44FITC, CD133 PE): 9.97%
  % Gated, R7 Cancer Stem Cell (CSC) (CD44+CD133-): 37.3%
  % Total, R7 Cancer Stem Cell (CSC) (CD44+CD133-): 34.9%
  % Gated, R8 (CD44FITC, EpCAMefluor710): 4.94%
  % Total, R8 (CD44FITC, EpCAMefluor710): 4.62%
  % Gated, R9 EpCAM positive Cells (CD44FITC, EpCAMefluor710): 53.5%
  % Total, R9 EpCAM positive Cells (CD44FITC, EpCAMefluor710): 50%
  % Gated, R10 EpCAM positive Cells (CD44FITC, EpCAMefluor710): 38.8%
  % Total, R10 EpCAM positive Cells (CD44FITC, EpCAMefluor710): 36.3%
  % Gated, R11 (CD44FITC, EpCAMefluor710): 2.33%
  % Total, R11 (CD44FITC, EpCAMefluor710): 2.18%
24 h incubation
  % Gated, R4 (CD44FITC, CD133 PE): 36.2%
  % Total, R4 (CD44FITC, CD133 PE): 32.4%
  % Gated, R5 (CD44FITC, CD133 PE): 8.6%
  % Total, R5 (CD44FITC, CD133 PE): 7.7%
  % Gated, R6 (CD44FITC, CD133 PE): 32.2%
  % Total, R6 (CD44FITC, CD133 PE): 28.8%
  % Gated, R7 Cancer Stem Cell (CSC) (CD44+CD133-): 22.6%
  % Total, R7 Cancer Stem Cell (CSC) (CD44+CD133-): 20.3%
  % Gated, R8 (CD44FITC, EpCAMefluor710): 4.94%
  % Total, R8 (CD44FITC, EpCAMefluor710): 4.42%
  % Gated, R9 EpCAM positive Cells (CD44FITC, EpCAMefluor710): 45.3%
  % Total, R9 EpCAM positive Cells (CD44FITC, EpCAMefluor710): 40.6%
  % Gated, R10 EpCAM positive Cells (CD44FITC, EpCAMefluor710): 47.4%
  % Total, R10 EpCAM positive Cells (CD44FITC, EpCAMefluor710): 42.5%
  % Gated, R11 (CD44FITC, EpCAMefluor710): 3.22%
  % Total, R11 (CD44FITC, EpCAMefluor710): 2.88%
48 h incubation
  % Gated, R4 (CD44FITC, CD133 PE): 40.1%
  % Total, R4 (CD44FITC, CD133 PE): 27.6%
  % Gated, R5 (CD44FITC, CD133 PE): 7.5%
  % Total, R5 (CD44FITC, CD133 PE): 5.16%
  % Gated, R6 (CD44FITC, CD133 PE): 27.4%
  % Total, R6 (CD44FITC, CD133 PE): 18.9%
  % Gated, R7 Cancer Stem Cell (CSC) (CD44+CD133-): 25.6%
  % Total, R7 Cancer Stem Cell (CSC) (CD44+CD133-): 17.6%
  % Gated, R8 (CD44FITC, EpCAMefluor710): 24.4%
  % Total, R8 (CD44FITC, EpCAMefluor710): 16.8%
  % Gated, R9 EpCAM positive Cells (CD44FITC, EpCAMefluor710): 31.8%
  % Total, R9 EpCAM positive Cells (CD44FITC, EpCAMefluor710): 21.9%
  % Gated, R10 EpCAM positive Cells (CD44FITC, EpCAMefluor710): 23.5%
  % Total, R10 EpCAM positive Cells (CD44FITC, EpCAMefluor710): 16.2%
  % Gated, R11 (CD44FITC, EpCAMefluor710): 21.1%
  % Total, R11 (CD44FITC, EpCAMefluor710): 14.5%
